As a reminder, the pKd is the negative decadic logarithm of the Kd, by convention in mol/L. High values mean a low Kd, low ones a high Kd.

Data on 1 molecule can be found in article PMC6468809, “Structural Analysis of the 42 kDa Parvulin of Trypanosoma brucei” (Biomolecules, 2019).

pKd: −log10 of the molar value. *1 amine or outer side, *2 acyl side, *3 side chain or, on linkers, in order; H or OH if unused. Where a SMILES comes first, the peptide text is derived from it. [ ]: non-standard residue; d: D form. pT = C[C@@H](OP(=O)(O)O)[C@H](N)C(=O)O; Suc = O=C(CCC(=O)[*:2])[*:1]

The target of one assay is TbPar42 NterFHA (1-177) (Trypanosoma brucei brucei, UniProt Q57XM6). Put plainly: biochemical.
Sequence of TbPar42 NterFHA (1-177) (Q57XM6 1-177): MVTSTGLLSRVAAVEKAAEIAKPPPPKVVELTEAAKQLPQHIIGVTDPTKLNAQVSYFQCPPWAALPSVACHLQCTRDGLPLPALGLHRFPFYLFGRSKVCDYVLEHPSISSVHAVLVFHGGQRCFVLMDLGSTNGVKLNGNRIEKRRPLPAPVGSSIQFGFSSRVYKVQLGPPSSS
Another assay deals with TbPar42-PPIase (264-383) (Trypanosoma brucei brucei, UniProt Q57XM6). Kind of assay: biochemical.
Sequence of TbPar42-PPIase (264-383) (Q57XM6 264-383): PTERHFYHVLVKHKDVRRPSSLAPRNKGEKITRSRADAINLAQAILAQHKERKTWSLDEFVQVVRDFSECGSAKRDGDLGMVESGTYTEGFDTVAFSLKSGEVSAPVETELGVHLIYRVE
Another assay concerns TbPar42-PPIase. Put plainly: EXSY experiment, cis/trans isomerisation of peptide. Format: biochemical, Trypanosoma brucei. To be noted: 2.4 mM peptide, 50 μM TbPar42-PPIase, 25 mM potassium phosphate pH 6.26, 100% D2O, 27 °C, mixing time 400 ms.
For another assay, the system named is hPin1. The description is as above. It counts as biochemical, human. The note with it: 2.4 mM peptide, 50 μM hPin-PPIase, 25 mM potassium phosphate pH 6.26, 100% D2O, 27 °C, mixing time 400 ms.

Experimental for TbPar42 NterFHA (1-177): After each step a ^1H-^15N-HSQC or SOFAST spectrum was recorded on a 700 MHz Ultrashield NMR spectrometer at 27 °C. The spectra were analyzed with the CcpNmr Analysis software, and the chemical shift perturbations were calculated with following equation [22]: Δδtotal=(ΔδH)^2+(0.154·ΔδN)²
Residues with chemical shifts ≥0.015 ppm (PPIase) or ≥0.04 ppm (NterFHA) were represented on the related protein structure using PyMOL [23]. For titrations of the peptide Ala-Glu-Ala-pThr-Glu-Ala-Xaa (Xaa representing Asp, Ile, Val, Ser, or Gln) to the NterFHA domain, the protein concentration was 250 µM and the peptides were titrated to a final concentration of 8 mM.

Regarding `C[C@H](NC(=O)[C@@H]1CCCN1C(=O)[C@@H](NC(=O)[C@H](C)NC(=O)CCC(=O)O)[C@@H](C)OP(=O)(O)O)C(N)=O` [Suc-Ala-pThr-Pro-Ala-NH2] (Suc-A[pT]PA-NH2), the pKd was approximately 2.40 on TbPar42 NterFHA (1-177) and approximately 2.00 on TbPar42-PPIase (264-383). Also, the “isomerase activity on the peptide” value in the assay with TbPar42-PPIase is “no isomerase activity could be detected”. The “cis/trans exchange peaks of the peptide (EXSY)” value in the assay with hPin1 is “exchange peaks generated exclusively in B”.
